Consider eight compounds from article PMC12366525, “Characterization of allosteric modulators that disrupt androgen receptor co-activator protein-protein interactions to alter transactivation–Drug leads for metastatic castration resistant prostate cancer” (SLAS discovery : advancing life sciences R & D, 2023).

Holding throughout (format): cell-based
In data set [1] the target is T1, AR-V7 (Homo sapiens, UniProt P10275).
T1 construct: expressed in transfected cells; host or cells: PC3 cells stably expressing AR-V7-GFP
T1 sequence (P10275 1-644 isoform P10275-3): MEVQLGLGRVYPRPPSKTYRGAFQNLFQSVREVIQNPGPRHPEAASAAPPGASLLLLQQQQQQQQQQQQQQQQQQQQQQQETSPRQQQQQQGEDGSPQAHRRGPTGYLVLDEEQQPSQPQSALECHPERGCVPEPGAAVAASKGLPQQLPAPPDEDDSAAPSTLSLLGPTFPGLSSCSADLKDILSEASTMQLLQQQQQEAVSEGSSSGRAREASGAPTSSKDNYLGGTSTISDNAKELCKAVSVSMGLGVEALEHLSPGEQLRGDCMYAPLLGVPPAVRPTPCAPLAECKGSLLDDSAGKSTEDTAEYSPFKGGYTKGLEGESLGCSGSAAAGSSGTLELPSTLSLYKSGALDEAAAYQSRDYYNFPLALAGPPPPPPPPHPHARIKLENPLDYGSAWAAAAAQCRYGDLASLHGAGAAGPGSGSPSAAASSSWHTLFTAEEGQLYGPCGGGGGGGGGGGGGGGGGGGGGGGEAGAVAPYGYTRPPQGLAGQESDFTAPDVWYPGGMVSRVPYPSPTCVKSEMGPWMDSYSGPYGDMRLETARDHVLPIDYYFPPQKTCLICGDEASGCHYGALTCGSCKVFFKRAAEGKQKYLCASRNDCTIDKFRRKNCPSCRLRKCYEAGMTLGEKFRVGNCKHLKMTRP
Kind of data set: PSA6.1 promoter driven luciferase reporter assay in PC3-AR-V7-GFP cells. The following applies: constitutive, 24 h; read-out: PC-3-ARV7-GFP PSA6.1-Luc Reporter IC50. As to the method:
PC3-AR-V7-GFP cells were bulk transfected with a mixture of Fugene HD and the PSA-6.1-Luc reporter plasmid (20 ng/well) combined at a 3:1 (μL:μg) ratio in Opti-MEM (Gibco, Gaithersburg, MD) that had been incubated for 25 min at RT before being added to PC3-AR-V7-GFP cells that were suspended in RPMI 1640 (Gibco) media containing 1% L-glutamine (Invitrogen), and 10% fetal bovine serum (Gemini Bio-products). Bulk transfected PC3-AR-V7-GFP cells were seeded into white opaque 384-well assay plates (Greiner Bio-one, #781080) at 3000 cells per well in a volume of 40 μL and incubated at 5% CO2, 37 °C, and 95% humidity for 24 h. After 24 h, 5 μL of compounds were transferred to assay wells and the plates were returned to the incubator for an additional 24 h before 25 μL of BrightGlo luciferase reagent (Promega) was added to the wells and the RLU’s were captured on a SpectraMax M5e plate reader (Molecular Devices LLC) as described previously.
For orientation: In a reporter assay the amount or activity of a reporter protein is the signal.

The target of data set [2] is T1, AR-V7. Kind of data set: UBE2C promoter driven luciferase reporter assay in PC3-AR-V7-GFP cells. The following applies: constitutive, 24 h; read-out: PC-3-ARV7-GFP UBE2C-Luc Reporter IC50. As to the method:
The pGL4.28-UBE2C 20bpX3 luciferase reporter plasmid was provided by Dr. Yan Dong from Tulane University. Fugene HD and the UBE2C-Luc plasmid (10 ng/well) were combined at a 3:1 (μL:μg) ratio, in Opti-MEM and incubated for 25 min at RT before being added to PC3-AR-V7-GFP cells that were suspended in RPMI 1640 (Gibco) media containing 1% L-glutamine (Invitrogen), and 10% fetal bovine serum (Gemini Bio-products). Bulk transfected PC3-AR-V7-GFP cells were seeded into white opaque 384-well assay plates (Greiner Bio-one, #781080) at a density of 3000 cell per well in a volume of 40 μL and incubated at 5% CO2, 37 °C, and 95% humidity for 24 h. After 24 h, 10 μL of compounds were transferred to assay wells and the plates were returned to the incubator for an additional 24 h before 25 μL of BrightGlo luciferase reagent (Promega) was added to the wells and the RLU’s were captured on a SpectraMax M5e plate reader (Molecular Devices LLC) as described previously.

For the next data set, the system named is U-2 OS cells. Kind of data set: AR-TIF2 PPIB cell loss (Hoechst stained nuclei). Conditions: 4.5 h compound exposure. As to the method:
The AR-TIF2 PPIB HCS assay was performed in U-2 OS osteosarcoma cells as described previously. Briefly, U-2 OS cells were coinfected with recombinant adenovirus biosensor expression constructs and seeded at 2500 cells per well in 384-well collagen-coated microplates (Greiner BioOne #781956) and plates were incubated overnight at 37°C in 5% CO2 and 95% humidity. […] After the appropriate time, assay plates were fixed by transfer of 50 μL of pre-warmed (37°C) 7.4% formaldehyde and 2 μg/mL Hoechst 33342 in PBS and incubation at room temperature for 30 min. Liquid was aspirated, plates were washed twice with 85 μL PBS, leaving the final wash in the plate. Plates were sealed with adhesive aluminum plate seals, and fluorescent images of three fields of view were acquired in the DAPI (Hoechst stained nuclei), FITC (TIF2-GFP) and Texas Red (AR-RFP) channels on an ImageXpress Micro (IXM) automated HCS platform (Molecular Devices LLC, Sunnyvale, CA) using a 10X Plan Fluor 0.3 NA objective. Images were analyzed using the Translocation Enhanced (TE) image analysis module of the MetaXpress software as described previously.

SMILES strings stand for the structures. Values joined by “and” are separate entries in the source; they are usually repeats but may differ in a detail not shown here. Equal entries are not always repeated. Some results are limits rather than exact numbers.

The term IC50 denotes the concentration at which inhibition is half-maximal. For `Cc1ccccc1-c1cc(O)c2c(c1)CN(c1nc(C(N)=O)cs1)CCO2` [S1–1], the results for the half-maximal inhibitory concentration (IC50) at AR-V7 [1] and at AR-V7 [2] were 33.5 µM and 34.7 µM, respectively. Moreover, the “AR-TIF2 PPIB Cell Loss” value in the data set on U-2 OS cells was greater than 100 µM.
Turning to `Cc1ccccc1-c1cc(O)c2c(c1)CN(c1nccs1)CCO2` [S1–3], the “AR-TIF2 PPIB Cell Loss” value in the data set with U-2 OS cells was greater than 100 µM.
Take `Cc1nsc(NC(=O)N2CCC(Sc3ccccc3C)CC2)n1` [S2–6]: the IC50 is 8 µM and 7.88 µM on AR-V7 [1]; 14.5 µM at AR-V7 [2]. In addition, the “AR-TIF2 PPIB Cell Loss” value with U-2 OS cells was greater than 100 µM.
`Cc1c(-c2ccccc2F)[nH]c2ccc(CNC(=O)CCc3cn[nH]c3)cc12` [S3–11]: the IC50 at AR-V7 [1] amounted to 10.7 µM; on AR-V7 [2], 21 µM. Moreover, the “AR-TIF2 PPIB Cell Loss” value with U-2 OS cells was greater than 100 µM.
For `Cc1c(-c2ccccc2F)[nH]c2ccc(CNC(=O)CCc3cnccn3)cc12` [S3–12], in that order: 8.17 µM, 17.7 µM and greater than 100 µM.
`CC(=O)NCCC(=O)NCc1ccc2[nH]c(-c3ccccc3F)c(C)c2c1` [S3–13]: the IC50 on AR-V7 [1] is 51.7 µM. In addition, the “AR-TIF2 PPIB Cell Loss” value in the data set on U-2 OS cells is greater than 100 µM.
With `Cc1c(-c2ccccc2F)[nH]c2ccc(CNC(=O)c3ccc(CO)o3)cc12` [S3–14], the IC50 was determined as 43.9 µM at AR-V7 [1] and 46 µM at AR-V7 [2]. For the same compound, the “AR-TIF2 PPIB Cell Loss” value in the data set with U-2 OS cells was greater than 100 µM.
Turning to `Cc1c(-c2ccc(F)cc2)[nH]c2ccc(CNC(=O)c3ccc(CO)o3)cc12` [S3–15], the IC50 at AR-V7 [1] turned out to be 10.1 µM; at AR-V7 [2], 18.5 µM. In addition, the “AR-TIF2 PPIB Cell Loss” value with U-2 OS cells was greater than 100 µM.
